The test concerns BE(2)-C cell. Kind of test: Cell proliferation assay (MTS) in BE(2)-C cells. In kind it is cell-based. Conditions: Homo sapiens, inhibition of BE(2)-C cell proliferation, 48 h. In short, it runs like this: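 BE(2)-C cells (3000/well, DMEM + 10% FBS) were treated for 48 h at 37 °C with compound at 1.5–10000 nM in nine concentrations. Viability was measured by MTS (2 h, stopped with SDS) at 490/650 nm, and IC50 was calculated from the dose-response.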
Take `CN1C[C@@H]2C[C@H]1CN2Cc1ccc(Nc2ncc(F)c(-c3cc(F)c4nc5n(c4c3)C3(CC5)CC3)n2)nc1` [Example 136, 5-fluoro-4-(5-fluoro-2,3-dihydrospiro[benzo[d]pyrrolo[1,2-a]imidazole-1,1′-cyclopropan]-7-yl)-N-(5-(((1S,4S)-5-methyl-2,5-diazabicyclo[2.2.1]heptan-2-yl)methyl)pyridin-2-yl)pyrimidin-2-amine]: the IC50 (usually the concentration needed to halve the response being measured) was greater than 100 nM.
Regarding `CCN1C[C@@H]2C[C@H]1CN2Cc1ccc(Nc2ncc(F)c(-c3cc(F)c4nc5n(c4c3)C3(CC5)CC3)n2)nc1` [Example 137, N-(5-(((1S,4S)-5-ethyl-2,5-diazabicyclo[2.2.1]heptan-2-yl)methyl)pyridin-2-yl)-5-fluoro-4-(5-fluoro-2,3-dihydrospiro[benzo[d]pyrrolo[1,2-a]imidazole-1,1′-cyclopropan]-7-yl)pyrimidin-2-amine], the concentration for half-maximal inhibition (IC50) is 10 to 100 nM.
For `C[C@@]12CNC[C@]1(C)CN(Cc1ccc(Nc3ncc(F)c(-c4cc(F)c5nc6n(c5c4)C4(CC6)CC4)n3)nc1)C2` [Example 138, N-(5-(((3aR,6aS)-3a,6a-dimethylhexahydro-pyrrolo[3,4-c]pyrrol-2(1H)-yl)methyl)pyridin-2-yl)-5-fluoro-4-(5-fluoro-2,3-dihydro-spiro[benzo[d]pyrrolo[1,2-a]imidazole-1,1′-cyclopropan]-7-yl)pyrimidin-2-amine] the value was greater than 1000 nM; for `CN1C[C@@]2(C)CN(Cc3ccc(Nc4ncc(F)c(-c5cc(F)c6nc7n(c6c5)C5(CC7)CC5)n4)nc3)C[C@@]2(C)C1` [Example 139, 5-fluoro-4-(5-fluoro-2,3-dihydrospiro[benzo[d]pyrrolo[1,2-a]imidazole-1,1′-cyclopropan]-7-yl)-N-(5-(((3aR,6aS)-3a,5,6a-trimethylhexahydro-pyrrolo[3,4-c]pyrrol-2(1H)-yl)methyl)pyridin-2-yl)pyrimidin-2-amine], greater than 1000 nM.
For `CCN1C[C@@]2(C)CN(Cc3ccc(Nc4ncc(F)c(-c5cc(F)c6nc7n(c6c5)C5(CC7)CC5)n4)nc3)C[C@@]2(C)C1` [Example 140, N-(5-(((3aR,6aS)-5-ethyl-3a,6a-dimethyl-hexahydropyrrolo[3,4-c]pyrrol-2(1H)-yl)methyl)pyridin-2-yl)-5-fluoro-4-(5-fluoro-2,3-dihydro-spiro[benzo[d]pyrrolo[1,2-a]imidazole-1,1′-cyclopropan]-7-yl)pyrimidin-2-amine] the value was greater than 100 nM; for `Fc1cnc(Nc2ccc(CN3CC4CNC4C3)cn2)nc1-c1cc(F)c2nc3n(c2c1)C1(CC3)CC1` (centres unmarked) [Example 141, N-(5-((3,6-diazabicyclo[3.2.0]heptan-3-yl)methyl)pyridin-2-yl)-5-fluoro-4-(5-fluoro-2,3-dihydro-spiro[benzo[d]pyrrolo[1,2-a]imidazole-1,1′-cyclo-propan]-7-yl)pyrimidin-2-amine], greater than 1000 nM.
As for `CN1CC2CN(Cc3ccc(Nc4ncc(F)c(-c5cc(F)c6nc7n(c6c5)C5(CC7)CC5)n4)nc3)CC21` (centres unmarked) [Example 142, 5-fluoro-4-(5-fluoro-2,3-dihydrospiro[benzo[d]pyrrolo[1,2-a]imidazole-1,1′-cyclopropan]-7-yl)-N-(5-((6-methyl-3,6-diazabicyclo[3.2.0]heptan-3-yl)methyl)pyridin-2-yl)pyrimidin-2-amine], the figure is greater than 1000 nM; as for `CCN1CC2CN(Cc3ccc(Nc4ncc(F)c(-c5cc(F)c6nc7n(c6c5)C5(CC7)CC5)n4)nc3)CC21` (centres unmarked) [Example 143, N-(5-((6-ethyl-3,6-diazabicyclo[3.2.0]heptan-3-yl)methyl)pyridin-2-yl)-5-fluoro-4-(5-fluoro-2,3-dihydrospiro[benzo[d]pyrrolo[1,2-a]imidazole-1,1′-cyclopropan]-7-yl)pyrimidin-2-amine], greater than 1000 nM.
`Fc1cnc(Nc2ccc(CN3CCN4CCC[C@H]4C3)cn2)nc1-c1cc(F)c2nc3n(c2c1)C1(CC3)CC1` [Example 144, (S)-5-fluoro-4-(5-fluoro-2,3-dihydrospiro[benzo [d]pyrrolo[1,2-a]imidazole-1,1′-cyclopropan]-7-yl)-N-(5-((hexahydropyrrolo[1,2-a]pyrazin-2(1H)-yl)methyl)pyridin-2-yl)pyrimidin-2-amine] registered an IC50 of 10 to 100 nM.
As for `Fc1cnc(Nc2ccc(CN3CCN4CCC[C@@H]4C3)cn2)nc1-c1cc(F)c2nc3n(c2c1)C1(CC3)CC1` [Example 145, (R)-5-fluoro-4-(5-fluoro-2,3-dihydrospiro[benzo [d]pyrrolo[1,2-a]imidazole-1,1′-cyclopropan]-7-yl)-N-(5-((hexahydropyrrolo[1,2-a]pyrazin-2(1H)-yl)methyl)pyridin-2-yl)pyrimidin-2-amine], the figure is 10 to 100 nM; as for `O[C@@H]1C[C@H]2CN(Cc3ccc(Nc4ncc(F)c(-c5cc(F)c6nc7n(c6c5)C5(CC7)CC5)n4)nc3)CCN2C1` [Example 146, (7R,8aS)-2-((6-((5-fluoro-4-(5-fluoro-2,3-dihydro-spiro[benzo[d]pyrrolo[1,2-a]imidazole-1,1′-cyclo-propan]-7-yl)pyrimidin-2-yl)amino)pyridin-3-yl)methyl)octahydropyrrolo[1,2-a]pyrazin-7-ol], greater than 1000 nM.
As for `NC1C2CN(Cc3ccc(Nc4ncc(F)c(-c5cc(F)c6nc7n(c6c5)C5(CC7)CC5)n4)nc3)CC12` (centres unmarked) [Example 147, 3-((6-((5-fluoro-4-(5-fluoro-2,3-dihydrospiro [benzo[d]pyrrolo[1,2-a]imidazole-1,1′-cyclo-propan]-7-yl)pyrimidin-2-yl)amino)pyridin-3-yl)methyl)-3-azabicyclo[3.1.0]hexan-6-amine], the figure is greater than 1000 nM.
For `Fc1cnc(Nc2ccc(CN3CCN4CCOC[C@H]4C3)cn2)nc1-c1cc(F)c2nc3n(c2c1)C1(CC3)CC1` [Example 148, (R)-5-fluoro-4-(5-fluoro-2,3-dihydrospiro[benzo [d]pyrrolo[1,2-a]imidazole-1,1′-cyclopropan]-7-yl)-N-(5-((hexahydropyrazino[2,1-c][1,4]oxazin-8(1H)-yl)methyl)pyridin-2-yl)pyrimidin-2-amine] the value was 10 to 100 nM.
As to `Fc1cnc(Nc2ccc(CN3CCNCC3)cn2)nc1-c1cc(F)c2nc3n(c2c1)CCC3` [Example 149, 5-fluoro-4-(5-fluoro-2,3-dihydro-1H-benzo[d]pyrrolo[1,2-a]imidazol-7-yl)-N-(5-(piperazin-1-ylmethyl)pyridin-2-yl)pyrimidin-2-amine], the IC50 is greater than 100 nM.
For `CN1CCN(Cc2ccc(Nc3ncc(F)c(-c4cc(F)c5nc6n(c5c4)CCC6)n3)nc2)CC1` [Example 150, 5-fluoro-4-(5-fluoro-2,3-dihydro-1H-benzo[d]pyrrolo[1,2-a]imidazol-7-yl)-N-(5-((4-methyl-piperazin-1-yl)methyl)pyridin-2-yl)pyrimidin-2-amine] the value was 10 to 100 nM; for `Fc1cnc(Nc2ccc(CN3CCNCC3)cn2)nc1-c1cc(F)c2nc3n(c2c1)[C@@H](C(F)F)CC3` [Example 152, (R)-4-(1-(difluoromethyl)-5-fluoro-2,3-dihydro-1H-benzo[d]pyrrolo[1,2-a]imidazol-7-yl)-5-fluoro-N-(5-(piperazin-1-ylmethyl)pyridin-2-yl)pyrimidin-2-amine], greater than 1000 nM.
As for `CN1CCN(Cc2ccc(Nc3ncc(F)c(-c4cc(F)c5nc6n(c5c4)[C@@H](C(F)F)CC6)n3)nc2)CC1` [Example 153, (R)-4-(1-(difluoromethyl)-5-fluoro-2,3-dihydro-1H-benzo[d]pyrrolo[1,2-a]imidazol-7-yl)-5-fluoro-N-(5-((4-methylpiperazin-1-yl)methyl)pyridin-2-yl)pyrimidin-2-amine], the figure is greater than 1000 nM.
For `CCN1CCN(Cc2ccc(Nc3ncc(F)c(-c4cc(F)c5nc6n(c5c4)[C@@H](C(F)F)CC6)n3)nc2)CC1` [Example 154, (R)-4-(1-(difluoromethyl)-5-fluoro-2,3-dihydro-1H-benzo[d]pyrrolo[1,2-a]imidazol-7-yl)-N-(5-((4-ethylpiperazin-1-yl)methyl)pyridin-2-yl)-5-fluoropyrimidin-2-amine] the value was greater than 1000 nM.
With `COC[C@H]1CCc2nc3c(F)cc(-c4nc(Nc5ccc(CN6CCNCC6)cn5)ncc4F)cc3n21` [Example 158, (R)-5-fluoro-4-(5-fluoro-1-(methoxymethyl)-2,3-dihydro-1H-benzo[d]pyrrolo[1,2-a]imidazol-7-yl)-N-(5-(piperazin-1-ylmethyl)pyridin-2-yl)pyrimidin-2-amine], the half-inhibitory concentration (IC50) is greater than 1000 nM.
For `COC[C@H]1CCc2nc3c(F)cc(-c4nc(Nc5ccc(CN6CCN(C)CC6)cn5)ncc4F)cc3n21` [Example 159, (R)-5-fluoro-4-(5-fluoro-1-(methoxymethyl)-2,3-dihydro-1H-benzo[d]pyrrolo[1,2-a]imidazol-7-yl)-N-(5-((4-methylpiperazin-1-yl)methyl)pyridin-2-yl)pyrimidin-2-amine] the value was greater than 1000 nM; for `CCN1CCN(Cc2ccc(Nc3ncc(F)c(-c4cc(F)c5nc6n(c5c4)[C@@H](COC)CC6)n3)nc2)CC1` [Example 160, (R)-N-(5-((4-ethylpiperazin-1-yl)methyl)pyridin-2-yl)-5-fluoro-4-(5-fluoro-1-(methoxymethyl)-2,3-dihydro-1H-benzo[d]pyrrolo[1,2-a]imidazol-7-yl)pyrimidin-2-amine], greater than 100 nM; for `CC1(C)CCc2nc3c(F)cc(-c4cc(Nc5ccc(CN6C7CCC6CNC7)cn5)ncc4F)cc3n21` [Example 161, N-(5-((3,8-diazabicyclo[3.2.1]octan-8-yl)methyl)pyridin-2-yl)-5-fluoro-4-(5-fluoro-1,1-dimethyl-2,3-dihydro-1H-benzo[d]pyrrolo[1,2-a]imidazol-7-yl)pyridin-2-amine], greater than 100 nM.
As for `CN1CC2CCC(C1)N2Cc1ccc(Nc2cc(-c3cc(F)c4nc5n(c4c3)C(C)(C)CC5)c(F)cn2)nc1` [Example 162, 5-fluoro-4-(5-fluoro-1,1-dimethyl-2,3-dihydro-1H-benzo[d]pyrrolo[1,2-a]imidazol-7-yl)-N-(5-((3-methyl-3,8-diazabicyclo[3.2.1]octan-8-yl)methyl)pyridin-2-yl)pyridin-2-amine], the figure is greater than 1000 nM.

Values taken from patent US10450316B2, “Certain protein kinase inhibitor” (Chongqing Fochon Pharmaceutical Co., Ltd., priority 2015, dated 2019).
